From article PMC12596500, “Affinity-selected peptide ligands specifically bind i-motif DNA and modulate c-Myc gene expression” (Nucleic Acids Research, 2025)
Peptide text beside a SMILES is read from it.

How the values were obtained:
c-MycC52 = assay: 1H NMR of c-MycC52 with peptide; assay type: binding; conditions: 50 µM c-MycC52, one equivalent of peptide, 10 mM sodium cacodylate pH 6.6, 10% D2O, 283 K, 600 MHz
Experimental: (§1) NMR: ^1H NMR spectra of c-MycC52 were recorded at 283 K using a Bruker Avance NEO 600 MHz spectrometer equipped with QCI-F cryoprobe operating Topspin 4.5.0. Spectra were recorded with excitation sculpting, at 27.75 ppm spectral width, 1 s acquisition time, and 1 s recycle delay. Spectra of the imino proton region were acquired with a 1D SOFAST excitation scheme with a 1293 μs Pc9_4_120 excitation pulse and 720 μs Reburp refocusing pulse, centred at 13 ppm, a 29.75 ppm spectral width, 115 ms acquisition time, and 100 ms recycle delay. Samples were annealed at a final concentration of 50 µM in 10 mM sodium cacodylate (pH 6.6). 10% D2O and 0.01% sodium trimethylsilylpropanesulfonate (DSS) were added immediately before recording NMR spectra experiments. Spectra were processed with exponential line broadening and referenced to the Sodium trimethylsilylpropanesulfonate (DSS) chemical shift. The chemical shift of the cacodylate buffer resonance was used to monitor potential pH changes between samples.
(§2) Given the selectivity of the Pep-PTN and Pep-VSE peptides for the c-Myc iM structure, both in the binding experiments and also the in vitro gene assays, we considered potential binding modes. We recorded NMR spectra of the c-MycC52 oligonucleotide in the presence and absence of Pep-VSE to give insights into potential binding sites (Supplementary Figs S17–S20). […]

[1] = Solubility and aggregation state seen by NMR; assay type: physicochemical; conditions: one equivalent of peptide to 50 µM c-MycC52, 10 mM sodium cacodylate pH 6.6, 10% D2O, 283 K, read-out 1H NMR
Experimental: as §1, §2

Compound: CC(=O)N[C@H](C(=O)N[C@@H](CO)C(=O)N[C@@H](CCC(=O)O)C(=O)N[C@@H](C)C(=O)N[C@@H](Cc1c[nH]c2ccccc12)C(=O)N[C@@H](CCCCN)C(=O)N[C@@H](CCC(=O)O)C(=O)N[C@H](C(=O)N[C@@H](CCCCN)C(=O)NCC(=O)N[C@@H](Cc1ccccc1)C(=O)N[C@@H](Cc1ccccc1)C(N)=O)C(C)C)C(C)C [Pep-VSE] (Ac-VSEAWKEVKGFF-NH2)
- effect on imino resonances of c-MycC52 (NMR) (c-MycC52): no perturbations to imino resonances
- solubility and aggregation state of the peptide (NMR) [1]: soluble and not aggregated
